Results: patent US11981658B2, “Substituted aminopyridine compounds as EGFR inhibitors” (YUHAN CORPORATION, priority 2021, dated 2024)
Where two headings read alike, the source gives them in different places.

What was measured:
EGFR Del19/T790M/C797S = EGFR Del19/T790M/C797S (Homo sapiens, UniProt P00533, C797S/DEL746-750/T790M); assay: Biochemical EGFR kinase inhibition assay (Lance Ultra TR-FRET), triple mutant del19/T790M/C797S
Procedure, shortened: (§1)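 In this biochemical assay, phosphorylation after a one-hour room-temperature reaction was detected with europium-labelled anti-phosphopeptide antibody at 2 nM final concentration.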

EGFR L858R/C797S = EGFR L858R/C797S (Homo sapiens, UniProt P00533, C797S/L858R); assay: Biochemical EGFR kinase inhibition assay (Lance Ultra TR-FRET), double mutant L858R/C797S
Procedure, shortened: as §1

EGFR L858R/T790M/C797S = EGFR L858R/T790M/C797S (Homo sapiens, UniProt P00533, C797S/L858R/T790M); assay: Biochemical EGFR kinase inhibition assay (Lance Ultra TR-FRET), triple mutant L858R/T790M/C797S
Procedure, shortened: as §1

EGFR Del19/C797S = EGFR Del19/C797S (Homo sapiens, UniProt P00533, C797S/DEL746-750); assay: Biochemical EGFR kinase inhibition assay (Lance Ultra TR-FRET), double mutant del19/C797S
Procedure, shortened: as §1

EGFR wildtype (WT) = EGFR wildtype (WT) (Homo sapiens, UniProt P00533); assay: Biochemical EGFR kinase inhibition assay (Lance Ultra TR-FRET), wildtype
Procedure, shortened: as §1

[1] = IC50 Del19/T790M/C797S (nM), 100 μM ATP
[2] = IC50 L858R/C797S (nM), 100 μM ATP
[3] = IC50 L858R/T790M/C797S (nM), 100 μM ATP
[4] = IC50 Del19/C797S (nM), 100 μM ATP
[5] = Km ATP, read-out: IC50 Del19/T790M/C797S (nM) Km ATP
[6] = Km ATP, read-out: IC50 L858R/C797S (nM) Km ATP
[7] = Km ATP, read-out: IC50 L858R/T790M/C797S (nM) Km ATP
[8] = Km ATP, read-out: IC50 Del19/C797S (nM) Km ATP
[9] = Km ATP, read-out: IC50 WT (nM) Km ATP

Chain of EGFR L858R/C797S (P00533 25-1210 C797S/L858R): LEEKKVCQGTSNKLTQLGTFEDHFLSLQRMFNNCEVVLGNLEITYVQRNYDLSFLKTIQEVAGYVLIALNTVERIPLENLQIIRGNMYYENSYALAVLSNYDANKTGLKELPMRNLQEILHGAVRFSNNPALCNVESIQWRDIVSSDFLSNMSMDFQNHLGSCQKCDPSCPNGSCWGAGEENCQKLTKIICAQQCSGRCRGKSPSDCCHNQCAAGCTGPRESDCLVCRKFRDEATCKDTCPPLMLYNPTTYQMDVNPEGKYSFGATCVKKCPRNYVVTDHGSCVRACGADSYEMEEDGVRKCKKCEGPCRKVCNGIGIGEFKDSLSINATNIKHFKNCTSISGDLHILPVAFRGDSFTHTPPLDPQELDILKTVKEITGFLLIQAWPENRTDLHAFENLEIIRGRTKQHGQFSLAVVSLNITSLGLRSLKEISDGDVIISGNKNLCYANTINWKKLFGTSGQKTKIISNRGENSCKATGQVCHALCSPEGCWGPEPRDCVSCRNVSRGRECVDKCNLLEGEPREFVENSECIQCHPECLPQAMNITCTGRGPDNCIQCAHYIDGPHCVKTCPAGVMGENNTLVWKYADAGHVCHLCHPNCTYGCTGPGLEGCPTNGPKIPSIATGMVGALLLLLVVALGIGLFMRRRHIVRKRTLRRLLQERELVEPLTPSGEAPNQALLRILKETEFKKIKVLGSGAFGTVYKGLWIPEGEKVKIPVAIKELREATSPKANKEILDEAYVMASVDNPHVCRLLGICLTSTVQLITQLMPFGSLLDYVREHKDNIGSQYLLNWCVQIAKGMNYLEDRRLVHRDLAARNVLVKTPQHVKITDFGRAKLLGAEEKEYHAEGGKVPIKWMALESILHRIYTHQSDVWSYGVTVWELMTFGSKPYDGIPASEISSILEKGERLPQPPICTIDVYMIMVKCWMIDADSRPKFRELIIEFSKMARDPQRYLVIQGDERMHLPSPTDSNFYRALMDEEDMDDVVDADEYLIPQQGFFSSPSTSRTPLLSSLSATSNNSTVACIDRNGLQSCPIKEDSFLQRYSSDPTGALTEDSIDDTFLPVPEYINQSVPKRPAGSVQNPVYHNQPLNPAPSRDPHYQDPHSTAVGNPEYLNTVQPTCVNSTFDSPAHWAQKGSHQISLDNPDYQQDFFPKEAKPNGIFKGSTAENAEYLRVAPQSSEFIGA
Chain of EGFR L858R/T790M/C797S (P00533 25-1210 T790M/C797S/L858R): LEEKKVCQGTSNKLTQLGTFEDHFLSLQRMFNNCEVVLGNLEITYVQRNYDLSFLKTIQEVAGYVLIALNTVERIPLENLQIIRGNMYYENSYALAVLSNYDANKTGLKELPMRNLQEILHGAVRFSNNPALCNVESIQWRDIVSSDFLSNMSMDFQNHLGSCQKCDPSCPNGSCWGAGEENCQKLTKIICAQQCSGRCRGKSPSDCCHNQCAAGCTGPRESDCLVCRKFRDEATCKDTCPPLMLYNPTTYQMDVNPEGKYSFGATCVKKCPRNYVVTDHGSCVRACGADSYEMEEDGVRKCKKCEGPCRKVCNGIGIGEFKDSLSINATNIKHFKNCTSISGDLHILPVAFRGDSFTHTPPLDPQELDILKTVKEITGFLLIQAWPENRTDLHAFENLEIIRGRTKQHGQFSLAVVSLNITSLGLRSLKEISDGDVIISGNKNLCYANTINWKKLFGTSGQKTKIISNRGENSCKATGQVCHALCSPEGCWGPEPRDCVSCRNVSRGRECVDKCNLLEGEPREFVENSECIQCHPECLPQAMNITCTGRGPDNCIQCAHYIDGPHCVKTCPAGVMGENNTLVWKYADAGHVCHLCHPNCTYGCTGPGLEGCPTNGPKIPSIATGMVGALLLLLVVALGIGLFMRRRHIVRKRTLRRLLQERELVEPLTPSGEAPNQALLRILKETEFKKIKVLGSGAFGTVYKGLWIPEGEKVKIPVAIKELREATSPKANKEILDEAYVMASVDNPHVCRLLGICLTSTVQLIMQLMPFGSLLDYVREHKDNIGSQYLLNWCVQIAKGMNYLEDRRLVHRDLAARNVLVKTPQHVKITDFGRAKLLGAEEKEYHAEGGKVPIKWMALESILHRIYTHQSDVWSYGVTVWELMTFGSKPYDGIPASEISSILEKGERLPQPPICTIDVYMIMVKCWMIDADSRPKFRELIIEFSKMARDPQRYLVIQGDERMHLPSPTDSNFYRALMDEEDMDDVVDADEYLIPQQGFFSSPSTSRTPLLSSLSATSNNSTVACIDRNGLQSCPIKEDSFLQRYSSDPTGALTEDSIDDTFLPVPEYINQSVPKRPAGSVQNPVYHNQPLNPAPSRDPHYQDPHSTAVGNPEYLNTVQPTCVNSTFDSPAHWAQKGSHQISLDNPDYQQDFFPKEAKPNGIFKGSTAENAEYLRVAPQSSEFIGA
Chain of EGFR Del19/T790M/C797S (P00533 with tags, fused parts or gaps DEL746-750/T790M/C797S): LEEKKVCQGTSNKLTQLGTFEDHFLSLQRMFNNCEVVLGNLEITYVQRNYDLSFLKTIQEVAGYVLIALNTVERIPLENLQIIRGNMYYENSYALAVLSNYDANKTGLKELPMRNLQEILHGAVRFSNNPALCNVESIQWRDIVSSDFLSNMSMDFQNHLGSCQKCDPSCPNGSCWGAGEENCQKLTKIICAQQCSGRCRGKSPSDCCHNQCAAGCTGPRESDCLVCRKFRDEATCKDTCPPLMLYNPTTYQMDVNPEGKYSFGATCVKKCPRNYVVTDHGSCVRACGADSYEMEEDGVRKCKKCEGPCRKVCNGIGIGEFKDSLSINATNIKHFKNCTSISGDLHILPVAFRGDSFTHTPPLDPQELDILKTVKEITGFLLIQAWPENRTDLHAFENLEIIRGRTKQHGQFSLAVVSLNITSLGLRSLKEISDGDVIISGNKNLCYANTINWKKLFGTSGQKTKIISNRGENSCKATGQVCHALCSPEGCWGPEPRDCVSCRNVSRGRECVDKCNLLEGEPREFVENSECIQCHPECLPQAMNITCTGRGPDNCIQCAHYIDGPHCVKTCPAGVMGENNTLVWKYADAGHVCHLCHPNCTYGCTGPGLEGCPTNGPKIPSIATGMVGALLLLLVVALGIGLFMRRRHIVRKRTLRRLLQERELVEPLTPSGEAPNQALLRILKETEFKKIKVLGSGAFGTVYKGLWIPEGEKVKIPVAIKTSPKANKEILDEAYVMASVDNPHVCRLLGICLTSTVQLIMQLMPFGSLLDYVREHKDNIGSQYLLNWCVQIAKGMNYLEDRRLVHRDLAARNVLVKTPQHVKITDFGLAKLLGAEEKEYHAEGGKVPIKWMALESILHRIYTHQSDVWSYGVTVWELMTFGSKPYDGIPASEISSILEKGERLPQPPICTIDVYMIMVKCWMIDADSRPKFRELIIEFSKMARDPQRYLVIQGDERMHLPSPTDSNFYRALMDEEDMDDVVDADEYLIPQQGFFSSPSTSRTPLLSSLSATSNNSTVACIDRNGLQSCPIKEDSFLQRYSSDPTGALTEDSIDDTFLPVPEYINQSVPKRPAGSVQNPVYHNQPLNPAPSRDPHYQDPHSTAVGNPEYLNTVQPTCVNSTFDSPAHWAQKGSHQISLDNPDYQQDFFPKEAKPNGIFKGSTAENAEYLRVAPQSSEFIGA
Chain of EGFR Del19/C797S (P00533 with tags, fused parts or gaps DEL746-750/C797S): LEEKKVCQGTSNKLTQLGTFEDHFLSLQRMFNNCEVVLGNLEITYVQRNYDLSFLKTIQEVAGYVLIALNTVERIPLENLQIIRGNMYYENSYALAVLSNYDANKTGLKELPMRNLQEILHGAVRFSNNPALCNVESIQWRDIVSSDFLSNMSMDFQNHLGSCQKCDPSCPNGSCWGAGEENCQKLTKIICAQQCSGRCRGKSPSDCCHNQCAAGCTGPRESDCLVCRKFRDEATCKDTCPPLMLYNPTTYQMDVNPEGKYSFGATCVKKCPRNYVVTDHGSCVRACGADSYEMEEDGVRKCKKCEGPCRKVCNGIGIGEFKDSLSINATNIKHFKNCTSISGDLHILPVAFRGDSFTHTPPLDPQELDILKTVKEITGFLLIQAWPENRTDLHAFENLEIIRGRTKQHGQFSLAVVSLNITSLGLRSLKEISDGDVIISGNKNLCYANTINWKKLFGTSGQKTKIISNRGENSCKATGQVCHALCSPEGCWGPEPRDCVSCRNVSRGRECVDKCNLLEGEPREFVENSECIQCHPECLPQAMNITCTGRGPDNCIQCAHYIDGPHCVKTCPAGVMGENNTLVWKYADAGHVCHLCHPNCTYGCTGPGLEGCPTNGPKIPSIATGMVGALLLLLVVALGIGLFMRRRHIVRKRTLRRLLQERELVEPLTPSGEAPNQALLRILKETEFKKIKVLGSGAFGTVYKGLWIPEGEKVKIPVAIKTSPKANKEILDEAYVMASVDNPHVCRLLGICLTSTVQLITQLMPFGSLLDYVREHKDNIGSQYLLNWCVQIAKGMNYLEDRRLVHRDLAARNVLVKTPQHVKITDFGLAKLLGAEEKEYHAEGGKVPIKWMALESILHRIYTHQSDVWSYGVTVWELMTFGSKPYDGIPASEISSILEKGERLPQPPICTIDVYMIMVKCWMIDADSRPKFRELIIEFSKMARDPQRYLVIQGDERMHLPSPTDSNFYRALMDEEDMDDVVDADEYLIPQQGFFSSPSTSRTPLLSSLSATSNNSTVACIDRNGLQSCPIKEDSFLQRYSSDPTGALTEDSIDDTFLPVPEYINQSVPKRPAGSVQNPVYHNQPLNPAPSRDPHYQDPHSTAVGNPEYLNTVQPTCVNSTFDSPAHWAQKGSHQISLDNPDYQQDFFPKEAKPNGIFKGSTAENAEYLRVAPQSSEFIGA

Row | SMILES | IC50 (EGFR Del19/T790M/C797S; [1]) | IC50 (EGFR L858R/C797S; [2]) | IC50 (EGFR L858R/T790M/C797S; [3]) | IC50 (EGFR Del19/C797S; [4]) | IC50 (EGFR wildtype (WT); IC50 WT (nM), 100 μM ATP) | IC50 (EGFR Del19/T790M/C797S; [5]) | IC50 (EGFR L858R/C797S; [6]) | IC50 (EGFR L858R/T790M/C797S; [7]) | IC50 (EGFR Del19/C797S; [8]) | IC50 (EGFR wildtype (WT); [9])
1 | CNC1CCN(c2cc(Nc3ccnc(-c4cnn(S(=O)(=O)C5CC5)c4)n3)ncc2C#Cc2cnn(C)c2)CC1 [Example 130, 2-(1-(Cyclopropylsulfonyl)-1H-pyrazol-4-yl)-N-(5-((1-methyl-1H-pyrazol-4-yl)ethynyl)-4-(4-(methylamino)piperidin-1-yl)pyridin-2-yl)pyrimidin-4-amine] | 1.4 nM | 68.7 nM | 5.1 nM | 107 nM | > 10000 nM | – | – | – | – | –
2 | Cn1cc(C#Cc2cnc(Nc3ccnc(-c4cnn(S(=O)(=O)C5CC5)c4)n3)cc2N2CCC(NCCO)CC2)cn1 [Example 131, 2-((1-(2-((2-(1-(Cyclopropylsulfonyl)-1H-pyrazol-4-yl)pyrimidin-4-yl)amino)-5-((1-methyl-1H-pyrazol-4-yl)ethynyl)pyridin-4-yl)piperidin-4-yl)amino)ethan-1-ol] | 0.7 nM | 35.6 nM | 2.6 nM | 50.8 nM | > 10000 nM | – | – | – | – | –
3 | COCCNC1CCN(c2cc(Nc3ccnc(-c4cnn(S(=O)(=O)C5CC5)c4)n3)ncc2C#Cc2cnn(C)c2)CC1 [Example 132, 2-(1-(Cyclopropylsulfonyl)-1H-pyrazol-4-yl)-N-(4-(4-((2-methoxyethyl)amino)piperidin-1-yl)-5-((1-methyl-1H-pyrazol-4-yl)ethynyl)pyridin-2-yl)pyrimidin-4-amine] | 1.3 nM | 46.4 nM | 4.2 nM | 131 nM | > 10000 nM | – | – | – | – | –
4 | Cn1cc(C#Cc2cnc(Nc3ccnc(-c4cnn(S(=O)(=O)C5CC5)c4)n3)cc2N2CCC(NCC(F)(F)F)CC2)cn1 [Example 135, 2-(1-(Cyclopropylsulfonyl)-1H-pyrazol-4-yl)-N-(5-((1-methyl-1H-pyrazol-4-yl)ethynyl)-4-(4-((2,2,2-trifluoroethyl)amino)piperidin-1-yl)pyridin-2-yl)pyrimidin-4-amine] | 2.6 nM | 40.6 nM | 5.2 nM | 3 nM | > 10000 nM | 0.7 nM | 4.1 nM | 0.6 nM | 1.6 nM | 28.7 nM
5 | CNC1CCN(c2cc(Nc3ccnc(-c4cnn(S(=O)(=O)C5CC5)c4)n3)ncc2C#Cc2ccn(C)n2)CC1 [Example 140, 2-(1-(Cyclopropylsulfonyl)-1H-pyrazol-4-yl)-N-(5-((1-methyl-1H-pyrazol-3-yl)ethynyl)-4-(4-(methylamino)piperidin-1-yl)pyridin-2-yl)pyrimidin-4-amine] | 1.8 nM | 887 nM | 6.4 nM | 176 nM | > 10000 nM | 1.3 nM | 23.2 nM | 1.3 nM | 114 nM | 622 nM
6 | Cn1ccc(C#Cc2cnc(Nc3ccnc(-c4cnn(S(=O)(=O)C5CC5)c4)n3)cc2N2CCC(NCCF)CC2)n1 [Example 141, 2-(1-(Cyclopropylsulfonyl)-1H-pyrazol-4-yl)-N-(4-(4-((2-fluoroethyl)amino)piperidin-1-yl)-5-((1-methyl-1H-pyrazol-3-yl)ethynyl)pyridin-2-yl)pyrimidin-4-amine] | 0.9 nM | 1900 nM | 3.4 nM | 49.1 nM | > 10000 nM | 0.7 nM | 13.7 nM | 0.7 nM | 48.7 nM | 256 nM
7 | CN(C)CCNC1CCN(c2cc(Nc3ccnc(-c4cnn(S(=O)(=O)C5CC5)c4)n3)ncc2C#Cc2ccn(C)n2)CC1 [Example 142, N^1-(1-(2-((2-(1-(Cyclopropylsulfonyl)-1H-pyrazol-4-yl)pyrimidin-4-yl)amino)-5-((1-methyl-1H-pyrazol-3-yl)ethynyl)pyridin-4-yl)piperidin-4-yl)-N^2,N^2-dimethylethane-1,2-diamine] | 0.4 nM | 176 nM | 0.9 nM | 8.4 nM | > 10000 nM | 0.4 nM | 3.9 nM | 0.2 nM | 5.9 nM | 31.3 nM
8 | CN(C)CCNC1CCN(c2cc(Nc3ccnc(-c4cnn(S(=O)(=O)C5CC5)c4)n3)ncc2C#Cc2cnn(C(F)(F)F)c2)CC1 [Example 143, N^1-(1-(2-((2-(1-(Cyclopropylsulfonyl)-1H-pyrazol-4-yl)pyrimidin-4-yl)amino)-5-((1-(trifluoromethyl)-1H-pyrazol-4-yl)ethynyl)pyridin-4-yl)piperidin-4-yl)-N^2,N^2-dimethylethane-1,2-diamine] | 0.5 nM | 83.5 nM | 0.9 nM | 1.9 nM | > 10000 nM | 0.5 nM | 1.8 nM | 0.3 nM | 1.2 nM | 14.3 nM

More lines, in order of falling IC50 (EGFR Del19/T790M/C797S; [1]), values ahead:

Row | IC50 (EGFR Del19/T790M/C797S; [1]) | IC50 (EGFR L858R/C797S; [2]) | IC50 (EGFR L858R/T790M/C797S; [3]) | IC50 (EGFR Del19/C797S; [4]) | IC50 (EGFR wildtype (WT); IC50 WT (nM), 100 μM ATP) | IC50 (EGFR Del19/T790M/C797S; [5]) | IC50 (EGFR L858R/C797S; [6]) | IC50 (EGFR L858R/T790M/C797S; [7]) | IC50 (EGFR Del19/C797S; [8]) | IC50 (EGFR wildtype (WT); [9]) | SMILES
9 | 0.4 nM | 121 nM | 0.9 nM | 2.3 nM | > 10000 nM | 0.4 nM | 5.6 nM | 0.1 nM | 1.5 nM | 40.5 nM | CN(C)C(C)(C)CNC1CCN(c2cc(Nc3ccnc(-c4cnn(S(=O)(=O)C5CC5)c4)n3)ncc2C#Cc2cnn(C)c2)CC1 [Example 134, N^4-(1-(2-((2-(1-(Cyclopropylsulfonyl)-1H-pyrazol-4-yl)pyrimidin-4-yl)amino)-5-((1-methyl-1H-pyrazol-4-yl)ethynyl)pyridin-4-yl)piperidin-4-yl)-N^2,N^2,2-trimethylpropane-1,2-diamine]
10 | 0.4 nM | 74.2 nM | 2 nM | 11.7 nM | > 10000 nM | 0.4 nM | 5 nM | 0.4 nM | 8.8 nM | 174 nM | O=S(=O)(C1CC1)n1cc(-c2nccc(Nc3cc(N4CCC(NCCO)CC4)c(C#Cc4cnn(C5CCOCC5)c4)cn3)n2)cn1 [Example 137, 2-((1-(2-((2-(1-(Cyclopropylsulfonyl)-1H-pyrazol-4-yl)pyrimidin-4-yl)amino)-5-((1-(tetrahydro-2H-pyran-4-yl)-1H-pyrazol-4-yl)ethynyl)pyridin-4-yl)piperidin-4-yl)amino)ethan-1-ol]
11 | 0.4 nM | 8.2 nM | 0.4 nM | 1.4 nM | 1580 nM | 0.4 nM | 0.9 nM | 0.1 nM | 0.9 nM | 5.4 nM | CC(=O)N1CCC(n2cc(C#Cc3cnc(Nc4ccnc(-c5cnn(S(=O)(=O)C6CC6)c5)n4)cc3N3CCC(NCCN(C)C)CC3)cn2)CC1 [Example 139, 1-(4-(4-((6-((2-(1-(Cyclopropylsulfonyl)-1H-pyrazol-4-yl)pyrimidin-4-yl)amino)-4-(4-((2-(dimethylamino)ethyl)amino)piperidin-1-yl)pyridin-3-yl)ethynyl)-1H-pyrazol-1-yl)piperidin-1-yl)ethan-1-one]
12 | 0.3 nM | 3.5 nM | 0.4 nM | 2.4 nM | 3840 nM | – | – | – | – | – | CN(C)CCNC1CCN(c2cc(Nc3ccnc(-c4cnn(S(=O)(=O)C5CC5)c4)n3)ncc2C#Cc2cnn(C)c2)CC1 [Example 133, N^1-(1-(2-((2-(1-(Cyclopropylsulfonyl)-1H-pyrazol-4-yl)pyrimidin-4-yl)amino)-5-((1-methyl-1H-pyrazol-4-yl)ethynyl)pyridin-4-yl)piperidin-4-yl)-N^2,N^2-dimethylethane-1,2-diamine]
13 | 0.3 nM | 30.5 nM | 1.2 nM | 4.9 nM | > 10000 nM | 0.3 nM | 2.7 nM | 0.3 nM | 3.3 nM | 60.2 nM | O=S(=O)(C1CC1)n1cc(-c2nccc(Nc3cc(N4CCC(NCCF)CC4)c(C#Cc4cnn(C5CCOCC5)c4)cn3)n2)cn1 [Example 136, 2-(1-(Cyclopropylsulfonyl)-1H-pyrazol-4-yl)-N-(4-(4-((2-fluoroethyl)amino)piperidin-1-yl)-5-((1-(tetrahydro-2H-pyran-4-yl)-1H-pyrazol-4-yl)ethynyl)pyridin-2-yl)pyrimidin-4-amine]
14 | 0.3 nM | 8.7 nM | 0.4 nM | 1.3 nM | 2940 nM | 0.3 nM | 0.9 nM | 0.1 nM | 1 nM | 7.8 nM | CN(C)CCNC1CCN(c2cc(Nc3ccnc(-c4cnn(S(=O)(=O)C5CC5)c4)n3)ncc2C#Cc2cnn(C3CCOCC3)c2)CC1 [Example 138, N^1-(1-(2-((2-(1-(Cyclopropylsulfonyl)-1H-pyrazol-4-yl)pyrimidin-4-yl)amino)-5-((1-(tetrahydro-2H-pyran-4-yl)-1H-pyrazol-4-yl)ethynyl)pyridin-4-yl)piperidin-4-yl)-N^2,N^2-dimethylethane-1,2-diamine]
